Patent US20230085307A1, “PYRIDAZINONE COMPOUND AND HERBICIDE” (NISSAN CHEMICAL CORPORATION, priority 2019, published 2023)

Legend:
windgrass = experiment: Test Example 5: herbicidal effect by foliage application, plastic box (Table 20, symbol L); format: in vivo, windgrass (Apera spica-venti); settings: foliage application, 320 g/ha, three weeks after application
Method in brief: (§1)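 Plants were sown into sterilized diluvial soil under about 1.5 cm cover and kept in a greenhouse at 25° C. to 30° C. Fourteen days on, foliage received an even spray of the diluted emulsion. Herbicidal or crop effect was judged three weeks afterwards.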

southern crabgrass [1] = experiment: Test Example 4: herbicidal effect by soil treatment (Table 19, symbol F); format: in vivo, southern crabgrass (Digitaria ciliaris); settings: amount of applied herbicide 320 g/ha
Method in brief: (§2)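 In this soil treatment, the formulated compound reached the seeds only through the soil: seeds were buried about 1.5 cm deep in sterilized diluvial soil, then the diluted emulsion was sprayed over the surface. After three weeks at 25° C. to 30° C. in a greenhouse, effects were graded on criteria from an earlier test.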

false cleavers [2] = experiment: Test Example 5: herbicidal effect by foliage application, plastic box (Table 20, symbol Q); format: in vivo, false cleavers (Galium spurium); settings: foliage application, 320 g/ha, three weeks after application
Method in brief: as §1

false cleavers [3] = experiment: Test Example 4: herbicidal effect by soil treatment (Table 19, symbol Q); format: in vivo, false cleavers (Galium spurium); settings: amount of applied herbicide 320 g/ha
Method in brief: as §2

barnyard grass [4] = experiment: Test Example 3: herbicidal effect by foliage application, Wagner pot (Table 18, symbol H); format: in vivo, barnyard grass (Echinochloa crus-galli); settings: 320 g/ha
Method in brief: (§3)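 Plants were sown in alluvial soil held under 0.1–0.5 cm standing water and grown 14 days in a greenhouse at 25–30 °C. An emulsifiable formulation, water-diluted to the set dose, was then sprayed onto the foliage, and effects were scored three weeks later using previously defined criteria.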

redroot pigweed [5] = experiment: Test Example 5: herbicidal effect by foliage application, plastic box (Table 20, symbol N); format: in vivo, redroot pigweed (Amaranthus retroflexus); settings: foliage application, 320 g/ha, three weeks after application
Method in brief: as §1

chickweed [6] = experiment: Test Example 4: herbicidal effect by soil treatment (Table 19, symbol P); format: in vivo, common chickweed (Stellaria media); settings: amount of applied herbicide 320 g/ha
Method in brief: as §2

lambsquarters [7] = experiment: Test Example 4: herbicidal effect by soil treatment (Table 19, symbol O); format: in vivo, lambsquarters (Chenopodium album); settings: amount of applied herbicide 320 g/ha
Method in brief: as §2

blackgrass [8] = experiment: Test Example 5: herbicidal effect by foliage application, plastic box (Table 20, symbol J); format: in vivo, blackgrass (Alopecurus myosuroides); settings: foliage application, 320 g/ha, three weeks after application
Method in brief: as §1

velvetleaf [9] = experiment: Test Example 4: herbicidal effect by soil treatment (Table 19, symbol M); format: in vivo, velvetleaf (Abutilon theophrasti); settings: amount of applied herbicide 320 g/ha
Method in brief: as §2

southern crabgrass [10] = experiment: Test Example 5: herbicidal effect by foliage application, plastic box (Table 20, symbol F); format: in vivo, southern crabgrass (Digitaria ciliaris); settings: foliage application, 320 g/ha, three weeks after application
Method in brief: as §1

wild oat [11] = experiment: Test Example 4: herbicidal effect by soil treatment (Table 19, symbol I); format: in vivo, wild oat (Avena fatua); settings: amount of applied herbicide 320 g/ha
Method in brief: as §2

rice flat sedge = experiment: Test Example 3: herbicidal effect by foliage application, Wagner pot (Table 18, symbol E); format: in vivo, rice flat sedge (Cyperus iria); settings: 320 g/ha
Method in brief: as §3

Chinese sprangletop = experiment: Test Example 3: herbicidal effect by foliage application, Wagner pot (Table 18, symbol D); format: in vivo, chinese sprangletop (Leptochloa chinensis); settings: 320 g/ha
Method in brief: as §3

velvetleaf [12] = experiment: Test Example 5: herbicidal effect by foliage application, plastic box (Table 20, symbol M); format: in vivo, velvetleaf (Abutilon theophrasti); settings: foliage application, 320 g/ha, three weeks after application
Method in brief: as §1

blackgrass [13] = experiment: Test Example 4: herbicidal effect by soil treatment (Table 19, symbol J); format: in vivo, blackgrass (Alopecurus myosuroides); settings: amount of applied herbicide 320 g/ha
Method in brief: as §2

wild oat [14] = experiment: Test Example 5: herbicidal effect by foliage application, plastic box (Table 20, symbol I); format: in vivo, wild oat (Avena fatua); settings: foliage application, 320 g/ha, three weeks after application
Method in brief: as §1

persian speedwell [15] = experiment: Test Example 5: herbicidal effect by foliage application, plastic box (Table 20, symbol R); format: in vivo, Persian speedwell (Veronica persica); settings: foliage application, 320 g/ha, three weeks after application
Method in brief: as §1

persian speedwell [16] = experiment: Test Example 4: herbicidal effect by soil treatment (Table 19, symbol R); format: in vivo, Persian speedwell (Veronica persica); settings: amount of applied herbicide 320 g/ha
Method in brief: as §2

redroot pigweed [17] = experiment: Test Example 4: herbicidal effect by soil treatment (Table 19, symbol N); format: in vivo, redroot pigweed (Amaranthus retroflexus); settings: amount of applied herbicide 320 g/ha
Method in brief: as §2

Italian ryegrass [18] = experiment: Test Example 4: herbicidal effect by soil treatment (Table 19, symbol K); format: in vivo, Italian ryegrass (Lolium multiflorum); settings: amount of applied herbicide 320 g/ha
Method in brief: as §2

Italian ryegrass [19] = experiment: Test Example 5: herbicidal effect by foliage application, plastic box (Table 20, symbol K); format: in vivo, Italian ryegrass (Lolium multiflorum); settings: foliage application, 320 g/ha, three weeks after application
Method in brief: as §1

green foxtail [20] = experiment: Test Example 5: herbicidal effect by foliage application, plastic box (Table 20, symbol G); format: in vivo, green foxtail (Setaria viridis); settings: foliage application, 320 g/ha, three weeks after application
Method in brief: as §1

barnyard grass [21] = experiment: Test Example 4: herbicidal effect by soil treatment (Table 19, symbol H); format: in vivo, barnyard grass (Echinochloa crus-galli); settings: amount of applied herbicide 320 g/ha
Method in brief: as §2

chickweed [22] = experiment: Test Example 5: herbicidal effect by foliage application, plastic box (Table 20, symbol P); format: in vivo, common chickweed (Stellaria media); settings: foliage application, 320 g/ha, three weeks after application
Method in brief: as §1

green foxtail [23] = experiment: Test Example 4: herbicidal effect by soil treatment (Table 19, symbol G); format: in vivo, green foxtail (Setaria viridis); settings: amount of applied herbicide 320 g/ha
Method in brief: as §2

lambsquarters [24] = experiment: Test Example 5: herbicidal effect by foliage application, plastic box (Table 20, symbol O); format: in vivo, lambsquarters (Chenopodium album); settings: foliage application, 320 g/ha, three weeks after application
Method in brief: as §1

barnyard grass [25] = experiment: Test Example 5: herbicidal effect by foliage application, plastic box (Table 20, symbol H); format: in vivo, barnyard grass (Echinochloa crus-galli); settings: foliage application, 320 g/ha, three weeks after application
Method in brief: as §1

With `Cc1nn(C)c(=O)c(-c2c(-c3ccccc3C(F)(F)F)sc3ccccc23)c1O` [1-007] the “herbicidal effect grade, L: windgrass” value (windgrass) was 5 (Herbicidal rate of 90% or more (almost completely withered)), the “herbicidal effect rating, F: southern crabgrass” value (southern crabgrass [1]) was 0 (Herbicidal rate of 5% or less (almost no effect)) and the “herbicidal effect grade, Q: false cleavers” value (false cleavers [2]) was 5 (Herbicidal rate of 90% or more (almost completely withered)). The “herbicidal effect rating, Q: false cleavers” value (false cleavers [3]) was 0 (Herbicidal rate of 5% or less (almost no effect)), the “herbicidal effect on H (barnyard grass), rating 0-5” value (barnyard grass [4]) was 5 (Herbicidal rate of 90% or more (almost completely withered)) and the “herbicidal effect grade, N: redroot pigweed” value (redroot pigweed [5]) was 5 (Herbicidal rate of 90% or more (almost completely withered)). For the same compound, the “herbicidal effect rating, P: chickweed” value (chickweed [6]) was 3 (Herbicidal rate of 40% or more and less than 70%), the “herbicidal effect rating, O: lambsquarters” value (lambsquarters [7]) was 0 (Herbicidal rate of 5% or less (almost no effect)) and the “herbicidal effect grade, J: blackgrass” value (blackgrass [8]) was 0 (Herbicidal rate of 5% or less (almost no effect)). The “herbicidal effect rating, M: velvetleaf” value (velvetleaf [9]) was 0 (Herbicidal rate of 5% or less (almost no effect)), the “herbicidal effect grade, F: southern crabgrass” value (southern crabgrass [10]) was 3 (Herbicidal rate of 40% or more and less than 70%) and the “herbicidal effect rating, I: wild oat” value (wild oat [11]) was 3 (Herbicidal rate of 40% or more and less than 70%). The “herbicidal effect on E (rice flat sedge), rating 0-5” value (rice flat sedge) was 4 (Herbicidal rate of 70% or more and less than 90%), the “herbicidal effect on D (Chinese sprangletop), rating 0-5” value (Chinese sprangletop) was 5 (Herbicidal rate of 90% or more (almost completely withered)) and the “herbicidal effect grade, M: velvetleaf” value (velvetleaf [12]) was 5 (Herbicidal rate of 90% or more (almost completely withered)). The “herbicidal effect rating, J: blackgrass” value (blackgrass [13]) was 0 (Herbicidal rate of 5% or less (almost no effect)), the “herbicidal effect grade, I: wild oat” value (wild oat [14]) was 3 (Herbicidal rate of 40% or more and less than 70%) and the “herbicidal effect grade, R: persian speedwell” value (persian speedwell [15]) was 5 (Herbicidal rate of 90% or more (almost completely withered)). For the same compound, the “herbicidal effect rating, R: persian speedwell” value (persian speedwell [16]) was 0 (Herbicidal rate of 5% or less (almost no effect)), the “herbicidal effect rating, N: redroot pigweed” value (redroot pigweed [17]) was 0 (Herbicidal rate of 5% or less (almost no effect)) and the “herbicidal effect rating, K: Italian ryegrass” value (Italian ryegrass [18]) was 0 (Herbicidal rate of 5% or less (almost no effect)). For the same compound, the “herbicidal effect grade, K: Italian ryegrass” value (Italian ryegrass [19]) was 3 (Herbicidal rate of 40% or more and less than 70%), the “herbicidal effect grade, G: green foxtail” value (green foxtail [20]) was 5 (Herbicidal rate of 90% or more (almost completely withered)) and the “herbicidal effect rating, H: barnyard grass” value (barnyard grass [21]) was 0 (Herbicidal rate of 5% or less (almost no effect)). For the same compound, the “herbicidal effect grade, P: chickweed” value (chickweed [22]) was 5 (Herbicidal rate of 90% or more (almost completely withered)), the “herbicidal effect rating, G: green foxtail” value (green foxtail [23]) was 0 (Herbicidal rate of 5% or less (almost no effect)) and the “herbicidal effect grade, O: lambsquarters” value (lambsquarters [24]) was 5 (Herbicidal rate of 90% or more (almost completely withered)). The “herbicidal effect grade, H: barnyard grass” value (barnyard grass [25]) was 3 (Herbicidal rate of 40% or more and less than 70%).
